The source of these data is patent publication US20240100190A1, “Brain Disease Therapy Enhancing Inhibition of GABAergic Neurons” (priority 2022, published 2024).

In data set [1] the test system is GABAergic neurons. The data set is described as follows: CNO administration and in vivo recordings in the auditory cortex. Set-up: species or system mice. How it is done:
In vivo recordings are performed in the ACs of mice using the same surgery setup described above.
For each time point, an average of six evoked responses is used. The inventors average the LFP amplitudes every six trials (MATLAB), which represents a 1-min recording. The representative waveforms are also plotted with MATLAB (MathWorks.Inc, Natick, US; https://ww2.mathworks.cn/). […] The results are exported into Excel for offline analysis and plotting.
C57BL/6J male mice (6-7 weeks old) are anesthetized with pentobarbital (100 mg/kg) supplemented with atropine (0.05 mg/kg, Sigma). The anesthetized mice are head-fixed using a stereotaxic device (RWD Life Science; Shen Zhen, China; https://www.rwdstco.com/). […] The PHP.eB serotype virus, which readily crosses the BBB for brain transduction, is produced using standard production methods. A glass pipette tip (at an angle of […] to about 45°) is used to slowly touch the surface of the transverse venous sinus with the injection pump running at a slow speed (100 nL/min). After the glass pipette tip penetrates the vessel, the injection speed is increased to 1,000 nL/min. A total of 50 μL of the virus (1.5E12 VGs/kg of body weight, VG, vector genome) is injected.
To verify the CNO administration can suppress the response to the AS through the potentiation of inhibition, electrophysiological recordings of neuronal firing and LFP response to the AS before and after the CNO application are performed.

Data set [2] relates to GABAergic neurons. Description: Current-clamp cortical slice recordings with CNO application. The format is cell-based, mice. The conditions noted are these: after CNO, hM3Dq-expressing neurons in cortical slices, 13 neurons. How it is done: Briefly, anesthetized mice receive transcardial perfusion withN-methyl-D-glucamine (NMDG)-aCSF (92 mM NMDG, 2.5 mM KCl, 1.2 mM NaH2PO4, 30 mM NaHCO3, 20 mM N-2-Hydroxyethylpiperazine-N-2-Ethane Sulfonic Acid (HEPES), 25 mM glucose, 2 mM thiourea, 5 mM Na-ascorbate, 3 mM Na-pyruvate, 0.5 mM CaCl2·4H2O, and 10 mM MgSO4·7H2O; adjusted pH to 7.3-7.4 with concentrated HCl), and the brain is gently and rapidly extracted from the skull and then cut into 300 μm-thick sections with a vibratome (Leica VT1200S). […]
Brain slices are then bathed in room-temperature recording aCSF (124 mM NaCl, 2.5 mM KCl, 1.2 mM NaH2PO4, 24 mM NaHCO3, 5 mM HEPES, 12.5 mM glucose, 2 mM CaCl2·4H2O and 2 mM MgSO4·7H2O, ˜25° C.) and whole-cell recordings are made at the auditory cortex using Multiclamp 700B amplifier (Molecular Devices, www.moleculardevices.com, Menlo Park, California, USA) and Digital 1440A digitizer (Molecular Devices, www.moleculardevices.com, Menlo Park, California, USA). […] 0.3 mL CNO (0.2 mg/mL) is gently infused into the recording chamber (5-7 mL recording aCSF) and recorded for at least 20 minutes. The firing rate is analyzed with Clampfit 11.2 (Molecular Devices, www.moleculardevices.com, Menlo Park, California, USA). […]

The subject of data set [3] is GABAergic neurons. Description: Laser pulse induced IPSC recording in cortex. The format is cell-based, Vgat-Cre mice. The conditions noted are these: hM3Dq and DIO-ChrimsonR-mCherry injected cortex; laser 0.1 Hz; baseline 100.22±0.66%. The text has this: FIG. 4A is a diagram showing the hM3Dq and DIO-ChrimsonR-mCherry injection into the cortex of Vgat-Cre mice.
Data set [4] in a line: Spontaneous locomotion detection (active time). The note with it: after CNO administration in two groups.
Procedure: The animals are housed separately under a standard 12-h light/dark cycle and stable temperature (23-25° C.) with full access to food and water.
A summation of each pixel value for the difference is used to decide whether the animal moves between these three frames. […] Animal movements are analyzed by the program. The active time for each mouse is determined every 24 h.
The behavioral effects after CNO intervention in the two groups are evaluated.
Setting [5] is: hM3Dq mice, n=30 recording sites.

For `C[N+]1([O-])CCN(C2=Nc3cc(Cl)ccc3Nc3ccccc32)CC1` [CNO, clozapine-N-oxide], the “duration of activation of the new units after the CNO application” value in data set [1] (hM3Dq mice) amounted to 25 min. For the same compound, in data set [1] (setting [5]), the “number of spike-sorted units after the CNO injection” value came to 4.30±0.27 and the “number of spike-sorted units before CNO injection” value was 2.73±0.27. For the same compound, in data set [1] (n=44 units, mean), the “maximum firing frequency during the bursts of the new units after CNO application” value is listed as 32.63±3.30 Hz. The “mean highest firing rate in bursts” value in data set [2] amounted to 33.24±2.46 Hz. In addition, the “normalized IPSCs amplitude 35-40 min after CNO” value in data set [3] was 250.62±6.46%. Also, the “side effects (astrocytic reactivity and locomotion)” value in data set [4] is “not detected”.
